Experimental data as given in patent publication US4101552A, “Novel lysergic acid amides and process for preparing same” (Richter Gedeon Vegyeszeti Gyar Rt., priority 1975, dated 1978).

Columns and labels:
blood pressure of cats = experiment: Antihypertensive effect: blood pressure of anaesthetized cats; type: in vivo, cat
Protocol: Antihypertensive effect
Method: the blood pressure of cats anaesthetized with
intraperitoneally administered 30 mg/kg of pento-
barbital was measured in the left femoral artery
by means of the Statham P 23 db manometer and re-
corded on Hellige polygraph. The compounds were
administered into the right femoral vein.
Number of animals: 2 to 5 per dose.

serotonin oedema = experiment: Antiserotonin effect in vivo: rat-sole oedema (serotonin oedema blocking)
[1] = system: hypertension produced by stimulation of the baroreceptors and the central vagus stump; experiment: Inhibition of hypertension produced by stimulation of the baroreceptors and the central vagus stump; conditions: in vivo
Protocol: (§1) It is characteristic of one of the compounds of the present invention and having a hypotensive action that when administered in intravenous doses of 0.1 to 0.5 mg/kg to cats and dogs in pentothal anaesthesia it provokes a permanent decrease of 20 to 60 mmHg in blood pressure (Table 3). […] It might therefore be assumed that the hypotensive effect of the compound according to the invention is the result of its inhibiting effect on the sympathetic cerebral centres. These properties are the most characteristic of the dihydro-lysergic-acid-(3'-/pyrrolid-2"-on-1"-yl/-propyl)-amide bimaleate (Example 1).

[2] = system: renal circulation, cerebral blood-vessels, blood-vessels of other organs; experiment: Effect on renal circulation and blood-vessels of organs; conditions: in vivo
Protocol: as §1

[3] = system: alpha- or beta-sympatholytic, ganglion-blocking or adrenergic neuron-blocking action; experiment: Sympatholytic, ganglion-blocking and adrenergic neuron-blocking action; conditions: in vivo
Protocol: as §1

[4] = system: catecholamine content of the organs; experiment: Catecholamine content of the organs; conditions: in vivo
[5] = system: acute hypertension produced by the infusion of angiotensin; experiment: Inhibition of acute hypertension produced by infusion of angiotensin; conditions: in vivo
isolated rat uterus = experiment: Antiserotonin effect in vitro on isolated rat uterus; conditions: read-out: In vitro ED50 (antiserotonin effect)
Excerpt: It is characteristic of the compound that its effect is well measurable even after oral administration, indicating its ready peroral absorption.
In vitro: on isolated rat uterus
Description of the method; GADDUM, J. H. and HAMMED, L. A.: […]

reserpine hypothermia = experiment: Antidepressant test: antagonization of reserpine hypothermia; type: in vivo; conditions: 30 mg/kg, intraperitoneally
Protocol: Antidepressant effect (Δt, ° C) and acute toxicity
Antidepressant test: antagonization of reserpine hypothermia
Dose: 30 mg/kg, intraperitoneally
Δt, ° C: change in body temperature compared to that of
Description of the method: ASKEW, B.M., Life Sci. 10, 725

[6] = Acute toxicity: LD50 on mice after 24 hours; conditions: mouse, in vivo
Protocol: Acute toxicity: LD50 on mice after 24 hours.
Description of the method: […], J.T.jr. and
WILCOXON, F.J., Pharmacol. exp.

[7] = po, rat-sole oedema, peroral, serotonin creatinine sulphate 5 μg per sole in 0.1 ml
[8] = sc, rat-sole oedema, subcutane, serotonin creatinine sulphate 5 μg per sole in 0.1 ml

For `CN1C[C@H](C(=O)N[C@]2(C)O[C@@]3(O)[C@@H]4CCCN4C(=O)[C@H](Cc4ccccc4)N3C2=O)C[C@@H]2c3cccc4[nH]cc(c34)C[C@H]21` [Dihydroergotamine, reference compound], the “Decrease in blood pressure” value (blood pressure of cats; 0.2 mg/kg i.v.) was -25 mmHg and the “Decrease in blood pressure, duration” value (blood pressure of cats; 0.2 mg/kg i.v.) was 0.5 h.

For `CC[C@@H](CO)NC(=O)[C@@H]1C=C2c3cccc4c3c(cn4C)C[C@H]2N(C)C1` (racemic) [Deseryl, N-[1-(hydroxymethyl)propyl]-1-methyl-d-/+/-lysergamide, reference compound], the ED50 (serotonin oedema; [7]) was 0.64 mg/kg and the “Serotonin oedema blocking effect ED50” value (serotonin oedema; rat-sole oedema, subcutane, serotonin creatinine sulphate 5 μg per sole in 0.1 ml) was 0/026.

In the case of `CN1C[C@H](C(=O)NCCCN2CCCC2=O)C[C@@H]2c3cccc4[nH]cc(c34)C[C@H]21` [Example 1, 9,10-Dihydrolysergic-acid-(3'-/pyrrolid-2"-on-1"-yl/-propyl)-amide bimaleate], the “inhibition of hypertension produced by stimulation of the baroreceptors and the central vagus stump” value [1] is reported as “inhibits hypertension produced by the stimulation of the baroreceptors and the central vagus stump”, the “effect on cerebral blood-vessels and blood-vessels of other organs” value [2] is reported as “does not cause a constriction of the cerebral blood-vessels or a substantial change in the blood-vessels of other organs” and the renal circulation [2] is reported as “tends to improve renal circulation”. The “alpha- or beta-sympatholytic, ganglion-blocking or adrenergic neuron-blocking action” value [3] was “no alpha- or beta-sympatholytic, ganglion-blocking or adrenergic neuron-blocking action”, the “catecholamine content of the organs” value [4] was “does not alter the catecholamine content of the organs” and the “inhibition of acute hypertension produced by infusion of angiotensin” value [5] was “inhibits acute hypertension produced by the infusion of angiotensin”.

`Cc1cc(O)ccc1NC(=O)[C@@H]1C[C@@H]2c3cccc4c3c(cn4C)C[C@H]2N(C)C1` [Example 14, 1-Methyl-9,10-dihydrolysergic-acid-(4'-m-cresyl)-amide bimaleate] showed an IC50 (isolated rat uterus) of 0.5 ng/mL, an ED50 (serotonin oedema; [7]) of 3 mg/kg and an ED50 (serotonin oedema; [8]) of 0.3 mg/kg. For the same molecule, the “Antidepressant effect, Δt (change in body temperature compared to that of the control)” value (reserpine hypothermia) was 3.4 °C.

With `CN1C[C@H](C(=O)Nc2nccs2)C=C2c3cccc4[nH]cc(c34)C[C@H]21` [Example 7, Lysergic-acid-(thiazol-2'-yl)-amide bimaleate] the “Antidepressant effect, Δt (change in body temperature compared to that of the control)” value (reserpine hypothermia) was 8.0 °C.

In the case of `CN1C[C@H](C(=O)NCCCN2CCCC2=O)C=C2c3cccc4[nH]cc(c34)C[C@H]21` [Example 2, Lysergic-acid-(3'-/pyrrolid-2"-on-1"-yl/-propyl)-amide bimaleate], the “Decrease in blood pressure” value (blood pressure of cats; 0.5 mg/kg i.v.) is reported as -50 mmHg, the “Decrease in blood pressure, duration” value (blood pressure of cats; 0.5 mg/kg i.v.) is reported as 1.5 h and the “Antidepressant effect, Δt (change in body temperature compared to that of the control)” value (reserpine hypothermia) is reported as 3.5 °C.

In the case of `CN1C[C@H](C(=O)Nc2ccnn2-c2ccccc2)C=C2c3cccc4[nH]cc(c34)C[C@H]21` [Example 11, Lysergic-acid-(1'-phenyl-pyrazol-5'-yl)-amide bimaleate], the “Antidepressant effect, Δt (change in body temperature compared to that of the control)” value (reserpine hypothermia) is reported as 2.9 °C.

`CN1C[C@H](C(=O)Nc2nccs2)C[C@@H]2c3cccc4c3c(cn4C)C[C@H]21` [Example 9, 1-Methyl-9,10-dihydrolysergic-acid-(thiazol-2'-yl)-amide bimaleate] showed an IC50 (isolated rat uterus) of 500 ng/mL, an ED50 (serotonin oedema; [7]) of 1 mg/kg and an ED50 (serotonin oedema; [8]) of 0.03 mg/kg. The “Decrease in blood pressure” value (blood pressure of cats; 1.0 mg/kg i.v.) was -20 mmHg, the “Decrease in blood pressure, duration” value (blood pressure of cats; 1.0 mg/kg i.v.) was 1.5 h and the “Antidepressant effect, Δt (change in body temperature compared to that of the control)” value (reserpine hypothermia) was 4.7 °C.

For `Cc1ccc(NC(=O)[C@@H]2C=C3c4cccc5[nH]cc(c45)C[C@H]3N(C)C2)c(F)c1` [Example 12, Lysergic-acid-(2'-fluoro-4'-methyl-phenyl)-amide bimaleate], the “Antidepressant effect, Δt (change in body temperature compared to that of the control)” value (reserpine hypothermia) was 6.9 °C and the LD50 at 24 h ([6]; ip, intraperitoneally) was 30 mg/kg.

For `CN1C[C@H](C(=O)NC2=NCCS2)C[C@@H]2c3cccc4c3c(cn4C)C[C@H]21` [Example 4, 1-Methyl-9,10-dihydrolysergic-acid-(2'-thiazolin-2'-yl)-amide bimaleate], the IC50 (isolated rat uterus) was 0.05 ng/mL, the “peroral efficacy (in words)” value (serotonin oedema; peroral) was “particularly favourable peroral efficacy” and the “peroral efficacy relative to Deseryl” value (serotonin oedema; peroral, surpassing the efficacy of Deseryl) was “about 3.5 times”. For the same molecule, the ED50 (serotonin oedema; [7]) was 0.12 mg/kg, the ED50 (serotonin oedema; [8]) was 0.022 mg/kg and the “Antidepressant effect, Δt (change in body temperature compared to that of the control)” value (reserpine hypothermia) was 4.1 °C. For the same molecule, the LD50 at 24 h ([6]; ip, intraperitoneally) was 330 mg/kg and the LD50 at 24 h ([6]; po, orally) was 315 mg/kg.

For `CN1C[C@H](C(=O)NCCCN2CCCC2=O)C[C@@H]2c3cccc4c3c(cn4C)C[C@H]21` [Example 3, 1-Methyl-9,10-dihydrolysergic-acid(3'-/pyrrolid-2"-on-1"-yl/propyl)-amide bimaleate], the IC50 (isolated rat uterus) was 5 ng/mL, the ED50 (serotonin oedema; [7]) was 1.5 mg/kg and the ED50 (serotonin oedema; [8]) was 0.3 mg/kg. For the same molecule, the “Decrease in blood pressure” value (blood pressure of cats; 0.5 mg/kg i.v.) was -30 mmHg and the “Decrease in blood pressure, duration” value (blood pressure of cats; 0.5 mg/kg i.v.) was 2.0 h.

For `CN1C[C@H](C(=O)Nc2cccc3ncccc23)C=C2c3cccc4[nH]cc(c34)C[C@H]21` [Example 10, Lysergic-acid-(quinolin-5-yl)-amide bimaleate], the “Antidepressant effect, Δt (change in body temperature compared to that of the control)” value (reserpine hypothermia) was 3.9 °C.

With `CSc1cccc(NC(=O)[C@@H]2C=C3c4cccc5[nH]cc(c45)C[C@H]3N(C)C2)c1` [Example 13, Lysergic-acid-(3'-methyl-mercapto)-anilide bimaleate] the “Antidepressant effect, Δt (change in body temperature compared to that of the control)” value (reserpine hypothermia) was 7.0 °C.

`CN1C[C@H](C(=O)NC2=NCCS2)C[C@@H]2c3cccc4[nH]cc(c34)C[C@H]21` [Example 5, 9,10-Dihydrolysergic-acid-(thiazolin-2'-yl)-amide bimaleate] gave an IC50 (isolated rat uterus) of 500 ng/mL, an ED50 (serotonin oedema; [7]) of 3 mg/kg and an ED50 (serotonin oedema; [8]) of 0.3 mg/kg. For the same molecule, the “Antidepressant effect, Δt (change in body temperature compared to that of the control)” value (reserpine hypothermia) was 3.6 °C.

With `C=CCOCC(O)CNC(=O)[C@@H]1C=C2c3cccc4[nH]cc(c34)C[C@H]2N(C)C1` (stereo partly shown) [Example 6, Lysergic-acid-(3'-allyloxy-2'-oxy-propyl)-amide bimaleate] the “Antidepressant effect, Δt (change in body temperature compared to that of the control)” value (reserpine hypothermia) was 5.4 °C, the LD50 at 24 h ([6]; ip, intraperitoneally) was 110 mg/kg and the LD50 at 24 h ([6]; po, orally) was 205 mg/kg.
